From publication PMC11513842, “Development of an orally bioavailable CDK12/13 degrader and induction of synthetic lethality with AKT pathway inhibition” (Cell Reports Medicine, 2024)
Where “and” joins values, the source holds several entries; their conditions need not be identical. Equal values may be shown once. Read-outs that look alike come from different tables or passages of the source.

Legend:
[1] = tested on: VCaP cells; test: Cell viability assay (CellTiter-Glo, 5 days); type: cell-based, human
Description: (§1) Cells were seeded in 96-well plates and incubated at 37°C with 5% CO2 overnight. A series of compound dilutions were added into the cells. After 5 days incubation, cell proliferation was tested using the CellTiter-Glo assay (Promega) according to the manufacturer’s protocol. Luminescence was measured using the Infinite M1000 Pro plate reader (Tecan). Data analysis was conducted using GraphPad Prism software.

[2] = tested on: MCF7; test: Cell viability assay (CellTiter-Glo, 5 days); type: cell-based; settings: Homo sapiens, 120 h; MCF7, 5 days of treatment, Figure 1F
Description: as §1

[3] = tested on: MDA-MB-468; test: Cell viability assay (CellTiter-Glo, 5 days); type: cell-based; settings: Homo sapiens, 120 h; MDA-MB-468, 5 days of treatment, Figure 1F
Description: as §1

[4] = tested on: DU145; test: Cell viability assay (CellTiter-Glo, 5 days); type: cell-based; settings: Homo sapiens, DU-145, 120 h; DU145, 5 days of treatment, Figure 1F
Description: as §1

[5] = tested on: WPMY-1; test: Cell viability assay (CellTiter-Glo, 5 days); type: cell-based; settings: Homo sapiens, 120 h; WPMY-1, 5 days of treatment, Figure 1F
Description: as §1

[6] = tested on: BPH-1; test: Cell viability assay (CellTiter-Glo, 5 days); type: cell-based; settings: Homo sapiens, 120 h; BPH-1, 5 days of treatment, Figure 1F
Description: as §1

[7] = tested on: SK-BR-3; test: Cell viability assay (CellTiter-Glo, 5 days); type: cell-based; settings: Homo sapiens, 120 h; SK-BR-3, 5 days of treatment, Figure 1F
Description: as §1

[8] = tested on: MCF10A; test: Cell viability assay (CellTiter-Glo, 5 days); type: cell-based; settings: Homo sapiens, MCF-10A, 120 h, 5 days of treatment, Figure 1F
Description: as §1

[9] = tested on: PrEC; test: Cell viability assay (CellTiter-Glo, 5 days); type: cell-based; settings: Homo sapiens, 120 h, 5 days of treatment, Figure 1F
Description: as §1

[10] = tested on: PNT2; test: Cell viability assay (CellTiter-Glo, 5 days); type: cell-based; settings: Homo sapiens, 120 h; PNT2, 5 days of treatment, Figure 1F
Description: as §1

[11] = tested on: MCF12A; test: Cell viability assay (CellTiter-Glo, 5 days); type: cell-based; settings: Homo sapiens, MCF-12A, 120 h, 5 days of treatment, Figure 1F
Description: as §1

[12] = tested on: PC3; test: Cell viability assay (CellTiter-Glo, 5 days); type: cell-based; settings: Homo sapiens, PC-3, 120 h; PC3, 5 days of treatment, Figure 1F
Description: as §1

[13] = tested on: CWR22RV1; test: Cell viability assay (CellTiter-Glo, 5 days); type: cell-based; settings: Homo sapiens, 120 h; CWR22RV1, 5 days of treatment, Figure 1F
Description: as §1

[14] = tested on: 22RV1; test: Cell viability assay (CellTiter-Glo, 5 days); type: cell-based; settings: Homo sapiens, 120 h; 22RV1, 5 days of treatment, Figure 1F
Description: as §1

[15] = tested on: LAPC4; test: Cell viability assay (CellTiter-Glo, 5 days); type: cell-based; settings: Homo sapiens, 120 h; LAPC4, 5 days of treatment, Figure 1F
Description: as §1

[16] = tested on: RWPE1; test: Cell viability assay (CellTiter-Glo, 5 days); type: cell-based; settings: Homo sapiens, RWPE-1, 120 h; RWPE1, 5 days of treatment, Figure 1F
Description: as §1

[17] = tested on: MFM223; test: Cell viability assay (CellTiter-Glo, 5 days); type: cell-based; settings: Homo sapiens, MFM-223, 120 h; MFM223, 5 days of treatment, Figure 1F
Description: as §1

[18] = tested on: VCaP cells; test: Comet assay; type: cell-based, human; settings: 100 nM, 12 h
Description: VCaP cells were seeded in 6-well plates one day prior to treatment. […] After 12 h incubation, the cells were trypsinized and resuspended at a concentration of 1 × 10^5 cells/mL in ice-cold PBS. The OxiSelect Comet Assay Kit (Cell Biolabs, STA-351) was used to assess DNA damage. Following the manufacturer’s protocol, cells were combined with pre-heated comet agarose at a 1:10 ratio, mixed thoroughly, and then transferred onto slides. The slides were incubated horizontally in the dark at 4°C for 20 min. Afterward, they were immersed in pre-chilled lysis buffer for 40 min at 4°C in the dark, followed by a 30-min incubation in pre-chilled alkaline solution at 4°C in the dark. Electrophoresis was then performed using alkaline solution at 30 V for 20 min. After electrophoresis, the slides were rinsed three times with pre-chilled deionized water, following with 70% ethanol for 5 min and completely dried at 37°C for 30 min. Subsequently, 100 μL of diluted Vista Green DNA dye was applied to each well. After 15 min incubation at room temperature, the comets were observed using a fluorescence microscope and quantified using ImageJ. The quantification figure was generated using GraphPad Prism software.

[19] = tested on: CDK12 and CDK13; settings: VCaP cells
Description: After treatment of varying conditions, cell lysates were prepared using RIPA buffer (ThermoFisher Scientific) supplemented with cOmplete protease inhibitor cocktail tablets (Sigma-Aldrich). The Pierce BCA Protein Assay Kit ([…]) was used to determine the protein concentrations. Proteins with an equal amount from each sample were loaded on NuPAGE 3–8% Tris-Acetate or 4–12% Bis-Tris protein gels (ThermoFisher Scientific) and subsequently transferred to membranes, which were blocked using 5% nonfat milk. Following blocking at room temperature for 1 h, the membrane was further incubated with varying primary antibodies at 4°C overnight. HRP-conjugated secondary antibodies were used for detection, and membrane imaging was conducted using an Odyssey Fc Imager (LI-COR Biosciences).

[20] = Pharmacokinetic profile in Sprague Dawley rats; type: in vivo, rat; settings: SD rats
[21] = VCaP cell viability, linker optimization, Figure S4B, read-out: VCaP IC50

**Q.** With `CN(C)C/C=C/C(=O)Nc1ccc(C(=O)N2CCC[C@@H](Nc3ncc(Cl)c(-c4c[nH]c5ccccc45)n3)C2)cc1` [THZ531, reference compound] as the compound, how does the IC50 ([1]; Homo sapiens, VCaP, 120 h, VCaP, 5 days of treatment, Figure 1F, read-out: IC50) read?
**A.** Its IC50 is 33.5 nM.

**Q.** And the IC50 [2]?
**A.** The IC50 was 356 nM.

**Q.** And the IC50 [3]?
**A.** Its IC50 is 158 nM.

**Q.** What about the IC50 [4] of the same compound?
**A.** Its IC50 is 230 nM.

**Q.** What about the IC50 [5] of the same compound?
**A.** The IC50 was 311 nM.

**Q.** What about the IC50 [6] of the same compound?
**A.** The IC50 was 356 nM.

**Q.** What about the IC50 [7] of the same compound?
**A.** Its IC50 is 64.8 nM.

**Q.** What about the IC50 [8] of the same compound?
**A.** The IC50 was 396 nM.

**Q.** And the IC50 [9]?
**A.** The IC50 was 335 nM.

**Q.** And the IC50 [10]?
**A.** Its IC50 is 1530 nM.

**Q.** What about the IC50 [11] of the same compound?
**A.** Its IC50 is 310 nM.

**Q.** What about the IC50 [12] of the same compound?
**A.** The IC50 was 120 nM.

**Q.** What about the IC50 [13] of the same compound?
**A.** The IC50 was 69.7 nM.

**Q.** And the IC50 [14]?
**A.** Its IC50 is 85.7 nM.

**Q.** What about the IC50 [15] of the same compound?
**A.** Its IC50 is 6.38 nM.

**Q.** What about the IC50 [16] of the same compound?
**A.** Its IC50 is 404 nM.

**Q.** And the IC50 [17]?
**A.** The IC50 was 33.3 nM.

**Q.** And the “DNA damage (tail moment)” value [18]?
**A.** The value was “significant increase in the tail moment”.

**Q.** Which results are given for `CN1C(=O)CCC(N2C(=O)c3cccc(OCC(=O)N4CCN(c5ccc(N(C(=O)NCc6ccccc6)C6CCC(Nc7ncc8ccccc8n7)CC6)cc5)CC4)c3C2=O)C1=O` (stereo not drawn) [YJ1078]?
**A.** IC50 ([1]; VCaP cells, 5 days, Figure S1E, read-out: IC50): > 3000 nM; CDK12/13 degradation (immunoblot) [19]: did not affect target protein levels

**Q.** Which IC50 [1, 21] does the source give for `O=C1CCC(N2C(=O)c3ccc(OCC(=O)N4CCN(c5ccc(N(C(=O)NCc6ccccc6)C6CCC(Nc7ncc8ccccc8n7)CC6)cc5)CC4)cc3C2=O)C(=O)N1` (stereo not drawn) [YJ1090] here?
**A.** Its IC50 is 93.8 nM.

**Q.** What about the “CDK12/13 degradation (immunoblot)” value [19] of the same compound?
**A.** The value was “retained the CDK12/13 degradation abilities”.

**Q.** For `O=C1CCC(N2Cc3ccc(OCC(=O)N4CCN(c5ccc(N(C(=O)NCc6ccccc6)C6CCC(Nc7ncc8ccccc8n7)CC6)cc5)CC4)cc3C2=O)C(=O)N1` (stereo not drawn) [YJ1094], which IC50 [1, 21] is on record?
**A.** Its IC50 is 25.2 nM.

**Q.** What about the “CDK12/13 degradation (immunoblot)” value [19] of the same compound?
**A.** Its value is “retained the CDK12/13 degradation abilities”.

**Q.** Which results are given for `O=C1CCC(N2C(=O)c3ccc(N4CCC(N5CCN(c6ccc(N(C(=O)NCc7ccccc7)C7CCC(Nc8ncc9ccccc9n8)CC7)cc6)CC5)C4)cc3C2=O)C(=O)N1` (stereo not drawn) [YJ1096]?
**A.** IC50 [1, 21]: 97.8 nM; CDK12/13 degradation (immunoblot) [19]: significantly decreased CDK12/13 degradation and cell viability

**Q.** For `O=C1CCC(N2C(=O)c3ccc(N4CCC(N5CCN(c6ccc(N(C(=O)NCc7ccccc7)C7CCC(Nc8ncc9ccccc9n8)CC7)cc6)CC5)CC4)cc3C2=O)C(=O)N1` (stereo not drawn) [YJ1105], which IC50 [1, 21] is on record?
**A.** Its IC50 is 15.1 nM and < 20 nM.

**Q.** And the “CDK12/13 degradation (immunoblot)” value [19]?
**A.** Its value is “potent degradation effects”.

**Q.** What about the “AUC(0-t)” value ([20]; i.v. 2.5 mg/kg) of the same compound?
**A.** The value was 8039.69 ng·h/mL.

**Q.** What about the CL ([20]; i.v. 2.5 mg/kg) of the same compound?
**A.** Its CL is 4.8027 mL/min/kg.

**Q.** And the Cmax ([20]; i.v. 2.5 mg/kg)?
**A.** Its Cmax is 1580 nM.

**Q.** And the T1/2 ([20]; i.v. 2.5 mg/kg)?
**A.** Its T1/2 is 7.05 h.

**Q.** What about the Tmax ([20]; i.v. 2.5 mg/kg) of the same compound?
**A.** Its Tmax is 0.08 h.

**Q.** What about the “AUC(0-)” value ([20]; oral 10 mg/kg) of the same compound?
**A.** The value was 9805.4 ng·h/mL.

**Q.** What about the “AUC(0-t)” value ([20]; oral 10 mg/kg) of the same compound?
**A.** The value was 8567.43 ng·h/mL.

**Q.** What about the Cmax ([20]; oral 10 mg/kg) of the same compound?
**A.** The Cmax was 715 nM.

**Q.** And the T1/2 ([20]; oral 10 mg/kg)?
**A.** Its T1/2 is 7.2 h.

**Q.** And the Tmax ([20]; oral 10 mg/kg)?
**A.** Its Tmax is 6 h.

**Q.** And the “F(%) (bioavailability by oral gavage)” value ([20]; oral 10 mg/kg vs i.v. 2.5 mg/kg)?
**A.** Its value is 26.64%.
